Assay results reported in patent EP4603105A1, “PHARMACEUTICAL COMPOSITION CONTAINING CYCLIC COMPOUND HAVING SELECTIVE KRAS INHIBITORY EFFECT AGAINST HRAS AND NRAS” (CHUGAI SEIYAKU KABUSHIKI KAISHA, priority 2022, dated 2024).
Where a SMILES comes first, the peptide text is derived from it. Bridges are numbered along the chain shown (N, C = ends). [ ]: non-standard residue; d: D form. The star is where a group is joined. hPhe(3-Cl-4-CF3) = N[C@@H](CCc1ccc(C(F)(F)F)c(Cl)c1)C(=O)O; NPrPhe(4-CF3) = CCCN[C@@H](Cc1ccc(C(F)(F)F)cc1)C(=O)O; NMeGly(cPent) = CN[C@H](C(=O)O)C1CCCC1; Pro(4,4-F2) = O=C(O)[C@@H]1CC(F)(F)CN1; NMeGly(cBu) = CN[C@H](C(=O)O)C1CCC1; Hyp = O=C(O)[C@@H]1C[C@@H](O)CN1; NMeD = CN[C@@H](CC(=O)O)C(=O)O; NMeL = CN[C@@H](CC(C)C)C(=O)O; Morpholide = C1CN(*)CCO1; NMeA = CN[C@@H](C)C(=O)O; Ac5c = NC1(C(=O)O)CCCC1; Aze = O=C(O)[C@@H]1CCN1; Sar = CNCC(=O)O

Experiments:
[1] = target: GDP-bound NRAS wild-type protein (Homo sapiens, UniProt P01111); experiment: Binding to NRAS by surface plasmon resonance (SPR), KD and KD ratio to KRAS
GDP-bound NRAS wild-type protein, sequence (P01111 whole entry): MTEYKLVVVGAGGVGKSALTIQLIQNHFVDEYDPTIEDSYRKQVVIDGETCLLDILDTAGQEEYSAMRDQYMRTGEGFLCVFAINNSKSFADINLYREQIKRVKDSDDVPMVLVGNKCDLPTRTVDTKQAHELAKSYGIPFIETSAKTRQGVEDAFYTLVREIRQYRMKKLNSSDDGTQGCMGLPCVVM
Outline: (§1)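 Biotinylated GDP-bound RAS was captured at about 100–300 RU. Running buffer: HBS pH 7.4, 10 mM MgCl2, 10 µM GDP, 1 mM DTT, 0.01% Tween 20, 4% DMSO.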

HRAS wild-type protein = HRAS wild-type protein (Homo sapiens, UniProt P01112); experiment: Binding to HRAS by surface plasmon resonance (SPR), KD and KD ratio to KRAS
HRAS wild-type protein, sequence (P01112 whole entry): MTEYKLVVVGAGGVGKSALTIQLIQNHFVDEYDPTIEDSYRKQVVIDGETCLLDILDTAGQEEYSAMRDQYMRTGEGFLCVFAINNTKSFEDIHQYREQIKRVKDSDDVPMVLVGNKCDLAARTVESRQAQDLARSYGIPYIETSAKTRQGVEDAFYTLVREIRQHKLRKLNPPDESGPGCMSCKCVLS
Outline: as §1

[2] = test system: human lung cancer strain NCI-H441; assay type: cell-based
Outline: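 Step one: dispense the test compound in serial DMSO dilutions. Step three: add the reagent and measure […].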

[3] = ratio of KD for GDP-bound NRAS wild-type protein to KD for KRAS
[4] = ratio of KD for HRAS wild-type protein to KD for KRAS

| SMILES | IC50 [2] | NRAS /KRAS [1, 3] | HRAS /KRAS (HRAS wild-type protein; [4]) | NRAS /KRAS ([1]; ratio of the KD value with respect to GDP-bound NRAS wild-type protein to the KD value with respect to KRAS) | HRAS /KRAS (HRAS wild-type protein; ratio of the KD value with respect to HRAS wild-type protein to the KD value with respect to KRAS) |
| --- | --- | --- | --- | --- | --- |
| CCC[C@H]1C(=O)N[C@@H]([C@@H](C)CC)C(=O)N(C)CC(=O)N(C)[C@H]2C/C=C\CCN(C2=O)[C@@H](Cc2ccc(C(F)(F)F)cc2)C(=O)N(C)CC(=O)N[C@@H](CCc2cc(Cl)c(C(F)(F)F)c(Cl)c2)C(=O)N2C[C@H](OCC)C[C@H]2C(=O)NC2(CC(C)(C)C2)C(=O)N(C)[C@@H](C2CCCC2)C(=O)N(C)[C@H](C(=O)N(C)C)CC(=O)N1C [PP2859] | 6.8 nM | A (a compound having 10 or more and less than 20 is denoted as A) | A (a compound having 10 or more and less than 20 is denoted as A) | – | – |
| CCCN1C(=O)CN(C)C(=O)[C@@H]2CCN2C(=O)[C@H]([C@@H](C)CC)NC(=O)[C@H](CC(C)C)N(C)C(=O)C[C@@H](C(=O)N(C)C)NC(=O)[C@H](C2CCCC2)N(C)C(=O)C2(CCCC2)NC(=O)[C@@H]2C[C@@H](OCC)CN2C(=O)[C@H](CCc2ccc(C(F)(F)F)c(Cl)c2)NC(=O)CN(C)C(=O)[C@@H]1Cc1ccc(C(F)(F)F)cc1 [PP0377] ([NMeL]I[Aze][Sar][NPrPhe(4-CF3)][Sar][hPhe(3-Cl-4-CF3)][Hyp](Et)[Ac5c][NMeGly(cPent)]D-NMe2; lactam N-11) | 33.4 nM | B (a compound having 3 or more and less than 10 is denoted as B) | C (A compound having a KD ratio of 0.1 or more and less than 3 is denoted as C) | – | – |
| CCO[C@@H]1C[C@H]2C(=O)NC3(CCC3)C(=O)N(C)[C@@H](C3CCCC3)C(=O)N(C)[C@H](C(=O)N(C)C)CC(=O)N(C)[C@@H](Cc3cccc(C)c3)C(=O)N[C@@H]([C@@H](C)CC)C(=O)N(C)CC(=O)N(C)[C@H]3CCCCCN(C3=O)[C@@H](Cc3ccc(C(F)(F)F)cc3)C(=O)N(C)CC(=O)N[C@@H](CCc3cc(F)c(C(F)(F)F)c(F)c3)C(=O)N2C1 [PP0942] | 66.1 nM | B (a compound having 3 or more and less than 10 is denoted as B) | B (a compound having 3 or more and less than 10 is denoted as B) | – | – |

The remaining molecules from weak to strong by IC50 [2], led by results:

| IC50 [2] | SMILES | NRAS /KRAS [1, 3] | HRAS /KRAS (HRAS wild-type protein; [4]) | NRAS /KRAS ([1]; ratio of the KD value with respect to GDP-bound NRAS wild-type protein to the KD value with respect to KRAS) | HRAS /KRAS (HRAS wild-type protein; ratio of the KD value with respect to HRAS wild-type protein to the KD value with respect to KRAS) |
| --- | --- | --- | --- | --- | --- |
| 22.4 nM | CCCN(C)C(=O)[C@@H]1CC(=O)N(C)[C@@H](C2CC2)C(=O)N[C@@H]([C@@H](C)CC)C(=O)N(C)CC(=O)N(C)[C@H]2C/C=C\CCN(C2=O)[C@@H](Cc2ccc(C(F)(F)F)cc2)C(=O)N(C)CC(=O)N[C@@H](CCc2cc(F)c(C(F)(F)F)c(F)c2)C(=O)N2C[C@H](OCC)C[C@H]2C(=O)NC2(CCC2)C(=O)N(C)[C@@H](C2CCCC2)C(=O)N1C [PP1994] | – | – | AA (a compound having 20 or more is denoted as AA) | A (a compound having 10 or more and less than 20 is denoted as A) |
| 11.9 nM | CCO[C@@H]1C[C@H]2C(=O)NC3(CCC3)C(=O)N(C)[C@@H](C3CCCC3)C(=O)N(C)[C@H](C(=O)N(C)C)CC(=O)N(C)[C@@H](Cc3cccc(Cl)c3)C(=O)N[C@@H]([C@@H](C)CC)C(=O)N(C)CC(=O)N(C)[C@H]3C/C=C\CCN(C3=O)[C@@H](Cc3ccc(C(F)(F)F)cc3)C(=O)N(C)CC(=O)N[C@@H](CCc3cc(F)c(C(F)(F)F)c(F)c3)C(=O)N2C1 [PP1127] | AA (a compound having 20 or more is denoted as AA) | A (a compound having 10 or more and less than 20 is denoted as A) | – | – |
| 2.5 nM | CCCN1C(=O)CN(C)C(=O)CN(C)C(=O)[C@H]([C@@H](C)CC)NC(=O)[C@H](C2CCC2)N(C)C(=O)C[C@@H](C(=O)N2CCOCC2)N(C)C(=O)[C@H](C2CCCC2)N(C)C(=O)C2(CCCC2)NC(=O)[C@@H]2CC(F)(F)CN2C(=O)[C@H](CCc2ccc(C(F)(F)F)c(Cl)c2)NC(=O)CN(C)C(=O)[C@@H]1Cc1ccc(C(F)(F)F)cc1 [PP0200] ([NMeGly(cBu)]I[Sar][Sar][NPrPhe(4-CF3)][Sar][hPhe(3-Cl-4-CF3)][Pro(4,4-F2)][Ac5c][NMeGly(cPent)][NMeD]-Morpholide; lactam N-11) | C (A compound having a KD ratio of 0.1 or more and less than 3 is denoted as C) | C (A compound having a KD ratio of 0.1 or more and less than 3 is denoted as C) | – | – |
| 1.8 nM | CCCN1C(=O)[C@@H]2CCN2C(=O)[C@H](C)N(C)C(=O)[C@H]([C@@H](C)CC)NC(=O)[C@H](CC(C)C)N(C)C(=O)C[C@@H](C(=O)N2CCOCC2)N(C)C(=O)[C@H](C2CCCC2)N(C)C(=O)C2(CCCC2)NC(=O)[C@@H]2C[C@@H](OCC)CN2C(=O)[C@H](CCc2ccc(C(F)(F)F)c(Cl)c2)NC(=O)CN(C)C(=O)[C@@H]1Cc1ccc(C(F)(F)F)cc1 [PP0228] ([NMeL]I[NMeA][Aze][NPrPhe(4-CF3)][Sar][hPhe(3-Cl-4-CF3)][Hyp](Et)[Ac5c][NMeGly(cPent)][NMeD]-Morpholide; lactam N-11) | C (A compound having a KD ratio of 0.1 or more and less than 3 is denoted as C) | B (a compound having 3 or more and less than 10 is denoted as B) | – | – |
